B1: Gαolf: wild type G protein α subunit Gαolf (mouse), SEQ ID NO: 2 (protein, listed as Mus musculus)
chain: MGCLGNSSKTAEDQGVDEKERREANKKIEKQLQKERLAYKATHRLLLLGAGESGKSTIVKQMRILHVNGFNPEEKKQKILDIRKNVKDAIVTIVSAMSTIIPPVPLANPENQFRSDYIKSIAPITDFEYSQEFFDHVKKLWDDEGVKACFERSNEYQLIDCAQYFLERIDSVSLVDYTPTDQDLLRCRVLTSGIFETRFQVDKVNFHMFDVGGQRDERRKWIQCFNDVTAIIYVAACSSYNMVIREDNNTNRLRESLDLFESIWNNRWLRTISIILFLNKQDMLAEKVLAGKSKIEDYFPEYANYTVPEDATPDAGEDPKVTRAKFFIRDLFLRISTATGDGKHYCYPHFTCAVDTENIRRVFNDCRDIIQRMHLKQYELL
modifications: (1)..(381) bulbus olfactorius of mouse

Experiments:
β1 adrenergic receptor = biological target: T1, β1 adrenergic receptor (Rattus norvegicus, UniProt P18090); assay: Patch-clamp agonist concentration dependence in Gi/olf94 chimeric G protein expressing cells (present invention); assay type: cell-based; conditions: for Change Level in Current Density (relative value): Table 14, 100 = 30000 nM dopamine, 100 nM dobutamine, 30 nM ISO
T1 construct: expressed in transfected cells; host or cells: HEK293T
T1 sequence (P18090 whole entry): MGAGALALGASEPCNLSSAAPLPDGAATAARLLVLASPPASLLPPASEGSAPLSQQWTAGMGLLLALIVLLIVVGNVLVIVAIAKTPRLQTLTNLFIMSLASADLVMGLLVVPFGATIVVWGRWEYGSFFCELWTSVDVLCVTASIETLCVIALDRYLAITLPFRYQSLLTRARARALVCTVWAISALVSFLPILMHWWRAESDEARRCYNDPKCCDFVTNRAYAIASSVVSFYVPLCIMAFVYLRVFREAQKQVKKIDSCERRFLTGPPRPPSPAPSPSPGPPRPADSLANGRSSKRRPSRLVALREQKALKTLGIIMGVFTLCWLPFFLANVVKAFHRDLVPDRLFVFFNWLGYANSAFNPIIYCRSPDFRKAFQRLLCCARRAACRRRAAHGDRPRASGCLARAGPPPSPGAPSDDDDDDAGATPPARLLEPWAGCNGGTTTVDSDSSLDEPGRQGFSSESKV
Experimental: Membrane current of the chimeric G protein expressing cell was measured by using a patch-clamp technique. […] Procedure for the measurements is shown below.
Measurement operations were conducted under a microscope (“1X71” manufactured by Olympus, Inc.). A liquid circulation chamber was mounted on the silver/silver chloride (Ag/AgCl) electrode. A sample for measurement was placed in the liquid circulation chamber filled with Tyroad's buffer. At a state where a single cell was in contact with the tip of a glass electrode, negative pressure was applied in the glass electrode. The portion of a cell membrane in contact with the tip of the glass electrode was torn to form an equivalent circuit (Whole-cell mode). The electric potential difference between inside and outside a cell was kept at 0 mV by using a patch clamp amplifier (“EPC10” manufactured by HEKA Instrument Inc.). Under this mode, the Tyroad's buffer in the liquid circulation chamber was substituted with a GIRK buffer.
The GIRK buffer in the liquid circulation chamber was substituted with a sample solution.
Chemical substance detection sensitivity according to the present invention was compared to detection sensitivity of cAMP technique, which is a commonly used chemical substance detection technique. The cAMP technique is a technique for measuring an increase in cAMP concentration in an intracellular fluid caused by an interaction between an agonist and a receptor, and quantifying the concentration of the agonist based on the measured value. More particularly, cells expressing β1 adrenergic receptor and potassium ion channel Kir3.1 (F137S) were placed in contact with a buffer solution containing ISO, and then were homogenized. The concentration of cAMP contained in the obtained homogenate liquid was measured. The concentration measurement was performed by using a measurement kit (cyclic AMP EIA kit; Assay Designs, Inc.). The kit measures cAMP concentration by utilizing competitive EIA (competitive enzyme immunoassay). A cAMP concentration obtained when the ISO concentration inside of a buffer solution was 1000 nM was represented as 100 as a standard, and cAMP concentrations at respective ISO concentrations were calculated as ratios with regard to this standard cAMP concentration. […] A change value in current density obtained when the ISO concentration was 30 nM was represented as 100 as a standard, and change values in current density at respective ISO concentrations were calculated as ratios with regard to the standard change value.

[1] = system: β1 adrenergic receptor / potassium ion channel Kir3.1 (F137S) in HEK293T cells; assay: Patch-clamp membrane current of G protein expressing HEK293T cells with and without ISO; assay type: cell-based, rat (receptor), mouse (Kir3.1)
Experimental: A cell was obtained that expressed a chimeric G protein, a potassium ion channel, and a chemical substance receptor (hereinafter, the cell is referred to as “chimeric G protein expressing cell”). An electrophysiological activity of the chimeric G protein expressing cell was measured by using patch-clamp method. The chimeric G protein expressing cell was prepared in accordance with the following procedure. First, a chimeric G protein expression plasmid, a potassium ion channel expression plasmid, and a chemical substance receptor expression plasmid were prepared. Next, the three expression plasmids were transfected into HEK293T cells, and were then expressed inside the cells.
A chimeric G protein comprising Gi/olf13 as a chimeric Gα subunit was employed. The mutated potassium ion channel Kir3.1 (F137S) was employed as a potassium ion channel. The β1 adrenergic receptor was employed as a chemical substance receptor.
The plasmid (βAR), the plasmid Kir3.1 (F137S), and the plasmid (Gi/olf13) were expressed in HEK293T cells. The procedure for the expression is shown below. Approximately 80% confluent cultured HEK293T cells were collected, and plated on a new culture petri dish. The passage number of the used cells was not more than ten generations. DMEM (supplemented with 10% FBS (fetal bovine serum) and streptomycin) was used. After culturing the cells for 24 hours, the cells were transfected with the plasmids by using a transfection reagent. The cells were cultured for 48 hours after being transfected with the plasmids, and thereby chimeric G protein expressing cells were prepared.
Membrane current of the chimeric G protein expressing cell was measured by using a patch-clamp technique. Measurements were conducted with and without supplying isoproterenol (hereinafter, referred to as “ISO”) which was a β1 adrenergic receptor agonist. Procedure for the measurements is shown below.
The chimeric G protein expressing cells were plated on coverslips (3 mm×10 mm; Matsunami Glass Ind., Ltd.,) treated with PLL (poly-L-lysine) and kept still for four hours to obtain samples for the measurements.
Procedure for preparing glass electrodes used for the measurements is described below. […]
Measurement operations were conducted under a microscope (“1X71” manufactured by Olympus, Inc.). […] Pulse potentials (electric potential: −50 mV; duration time: 100 mS) were applied every 10 seconds, and membrane currents obtained upon the application were measured.
Next, membrane currents obtained when isoproterenol (hereinafter, abbreviated as “ISO”) which is a β1 adrenergic receptor agonist was brought into contact with the cell were measured in accordance with the following procedure. […]

| Molecule | Change Level in Current Density (relative value) (β1 adrenergic receptor; agonist 0.3 nM) | Change Level in Current Density (relative value) (β1 adrenergic receptor; agonist 3 nM) | Change Level in Current Density (relative value) (β1 adrenergic receptor; agonist 30 nM) | Change Level in Current Density (relative value) (β1 adrenergic receptor; agonist 300 nM) | Change Level in Current Density (relative value) (β1 adrenergic receptor; agonist 3000 nM) | EC50 (β1 adrenergic receptor; change in current density, Gi/olf94 cells, read-out: half maximal effective concentration (EC50)) [nM] | change level of current caused by addition of ISO ([1]; Reference Example) | current value when ISO was supplied ([1]; Reference Example, FIG. 26-28, with ISO) | Change Level in Current Density ([1]; Table 11, difference of current density without vs with ISO 30 nM, pulse −50 mV, β1 adrenergic receptor + Kir3.1 (F137S) co-expressed) [pA/pF] | Current Change Level ([1]; Table 15, Reference Example, change on contact with ISO) [nA] |
| --- | --- | --- | --- | --- | --- | --- | --- | --- | --- | --- |
| CC(CCc1ccc(O)cc1)NCCc1ccc(O)c(O)c1 (stereo not shown) [dobutamine] | 0.67 | 6.80 | 20.59 | 99.15 | 100 | 50 |  |  |  |  |
| B1 |  |  |  |  |  |  | small | approximately 0.5 nA | −22.59 | −0.37 |
